Results as given in patent US20100210467A1, “AGENT FOR IMPROVING SUGARCANE BRIX AND METHOD OF PROMOTING SUGARCANE RIPENING USING THE SAME” (Kumiai Chemical Industry Co., Ltd., priority 2007, published 2010).

Assays:
Type in all cases: in vivo
[1] = tested on: sugarcane; experiment: Example 1: sugar content of sugarcane stem juice after power-sprayer application, field test in Brazil
Method: With respect to sugarcane grown in a sugarcane cultivated area in Brazil (an average Brix value in the harvesttime being 18%), a juice was collected from 5 middle internodes selected at random in the sugarcane stem and the Brix value was measured according to a usual method. At the time the measured Brix value became 82% of the aforementioned average Brix value, a bispyribac-sodium formulation (a commercially available product, a tradename “NOMINEE 400SC”) was diluted with water so that the amount of the effective ingredient in 74 liters of the spraying liquid could be equal to the used amount shown in Table 1. The liquid was then sprayed above the plant by the aid of a power sprayer to a test area at a rate of 74 liters per hectare.
(§1) In a control area, a known sulfometuron-methyl formulation (a commercially available product, a tradename “CURAVIAL”) was similarly sprayed.
Next, 10 individual sugarcanes were cut from each area on the initial day of spraying, after 30 days of spraying and after 45 days of spraying, and thereafter the stem was squeezed and sugar was recovered from the juice to obtain the yield. Each yield was compared with the yield of the initial day of spraying and the rate of increase (%) was calculated.
(§2) In accordance with “NORMAS DE AVALIAçÃO DA […] DA CANA-DE-AçÚCAR” used in Brazilian sugar refining plants as Standard for quality evaluation of sugarcane, the analysis on the sugar content in the squeezed juice of sugarcane stem was carried out for Brix value, sugar content in sugarcane (PC), and total sugar amount recoverable from sugarcane stem (ATR) as follows.
(§3) Brix was measured according to a digital refractometer. PC was calculated according to the equation (1). ATR was calculated according to the equation (5).
S denotes a sugar content in the extracted liquid and is calculated according to the equation (2). F denotes an amount of fibers in sugarcane and is calculated according to the equation (3). C denotes a conversion coefficient from the sugar content in the extracted liquid to an absolute amount and is calculated according to the equation (4).
LAI denotes a measured value by the digital saccharimeter after clarification of the juice by a clarifying mixture made from aluminum.
PBU denotes the mass of a wet bagasse exhausted from a pressing machine in the squeezed step of sugarcane stem.
ARC denotes an amount of reducing sugar of sugarcane and is calculated from the following equation (6).
AR denotes an amount of reducing sugar in the extracted liquid and is calculated from the following equation (7).

[2] = tested on: sugarcane; experiment: Example 2: sugar content of sugarcane stem juice after spraying from an aircraft, field test in Brazil; details: after 30 days of spraying
Method: as §2, §3
At the time the Brix value of sugarcane grown in a sugarcane cultivated area in Brazil (an average Brix value in the harvesttime being 21%) became 81% of the aforesaid average Brix value, a bispyribac-sodium formulation (a commercially available product, a tradename “NOMINEE 400SC”) was diluted with water so that the amount of the effective ingredient in 30 liters of the spraying liquid could be equal to the used amount shown in Table 3, and the liquid was sprayed over the test area from an air-craft at a rate of 30 liters per hectare.
In a control area, a known fluazifop formulation (a commercially available product, a tradename “[…]”) was similarly sprayed.
Next, 5 individual sugarcanes were cut from 5 locations in each area, i.e. 25 sugarcanes from each area, on the initial day of spraying and after 30 days of spraying, and thereafter the stems were squeezed and sugar was recovered from the juice to obtain the yield. The yield after 30 days of spraying was compared with the yield of the initial day of spraying and the rate of increase (%) was calculated. The analysis on the sugar content in the squeezed juice of sugarcane stems was carried out similarly as in the case of Example 1.

[3] = tested on: sugarcane; experiment: Example 5: sugar content of sugarcane stem juice after bispyribac-sodium and/or gibberellin spraying, field test in Brazil; details: 20 g/ha
Method: as §2, §3
At the time the Brix value of sugarcane grown in a sugarcane cultivated area in Brazil (an average Brix value in the harvesttime being 18%) became 88% of the aforesaid average Brix value, a bispyribac-sodium formulation (a commercially available product, a tradename, “NOMINEE 400SC”) and a gibberellin formulation (a commercially available product, a tradename, “PRO-GIBB”) were admixed together and diluted with water or separately diluted with water so that the amount of the effective ingredient in 105 liters of each of the spraying liquids could be equal to the used amount shown in Table 8, and each liquid was sprayed above the plant by the aid of a CO2-pressurized back pack sprayer to the test area at a rate of 105 liters per hectare.
as §1
(§4) Next, 20 individual sugarcanes were cut from each area on the initial day of spraying, after 15 days of spraying, after 30 days of spraying and after 45 days of spraying, and thereafter the stems were squeezed and sugar was recovered from the juice to obtain the yield. Each yield was compared with the yield of the initial day of spraying and the rate of increase (%) was calculated. The analysis on the sugar content in the squeezed juice of sugarcane stems was carried out similarly as in the case of Example 1.

[4] = tested on: sugarcane; experiment: Example 6: sugar content of sugarcane stem juice after bispyribac-sodium + prohexadione-calcium spraying, field test in Brazil; details: 200 g/ha
Method: as §2, §3
At the time the Brix value of sugarcane grown in a sugarcane cultivated area in Brazil (an average Brix value in the harvesttime being 20%) became 80% of the aforesaid average Brix value, a bispyribac-sodium formulation (a commercially available product, a tradename, “NOMINEE 400SC”) and a prohexadione-calcium formulation (a tradename, “VIVIFUL”) were admixed together and diluted with water so that the amount of the effective ingredient in 105 liters of each spraying liquid could be equal to the used amount shown in Table 10, and the liquid was sprayed above the plant by the aid of a CO2-pressurized back pack sprayer to the test area at a rate of 105 liters per hectare.
In a control area, a known trinexapac-ethyl formulation (a commercially available product, a tradename “MODDUS”) was similarly sprayed.
as §4

[5] = 16 g/ha, after 30 days of spraying
[6] = 16 g/ha, after 45 days of spraying
[7] = 35 g/ha, after 30 days of spraying
[8] = 35 g/ha, after 45 days of spraying

COc1cc(OC)nc(Oc2cccc(Oc3nc(OC)cc(OC)n3)c2C(=O)O)n1 [Bispyribac-sodium]
ATR increased rate from the initial day of spraying [1, 5]: 23.1% | Brix increased rate from the initial day of spraying [1, 5]: 23.0% | Concentration of soluble solid matter, Brix [1, 5]: 18.4% | PC increased rate from the initial day of spraying [1, 5]: 25.7% | Sugar content in sugarcane, PC [1, 5]: 13.0% | Total sugar amount recoverable from 1 kg of stem, ATR [1, 5]: 129.7 g | ATR increased rate from the initial day of spraying [1, 6]: 44.9% | Brix increased rate from the initial day of spraying [1, 6]: 41.0% | Concentration of soluble solid matter, Brix [1, 6]: 21.1% | PC increased rate from the initial day of spraying [1, 6]: 50.9% | Sugar content in sugarcane, PC [1, 6]: 15.5% | Total sugar amount recoverable from 1 kg of stem, ATR [1, 6]: 152.7 g | ATR increased rate from the initial day of spraying [1, 7]: 32.0% | Brix increased rate from the initial day of spraying [1, 7]: 29.5% | Concentration of soluble solid matter, Brix [1, 7]: 20.5% | PC increased rate from the initial day of spraying [1, 7]: 35.9% | Sugar content in sugarcane, PC [1, 7]: 14.7% | Total sugar amount recoverable from 1 kg of stem, ATR [1, 7]: 145.1 g | ATR increased rate from the initial day of spraying [1, 8]: 42.1% | Brix increased rate from the initial day of spraying [1, 8]: 37.1% | Concentration of soluble solid matter, Brix [1, 8]: 21.7% | PC increased rate from the initial day of spraying [1, 8]: 47.6% | Sugar content in sugarcane, PC [1, 8]: 15.9% | Total sugar amount recoverable from 1 kg of stem, ATR [1, 8]: 156.2 g | ATR increased rate from the initial day of spraying ([2]; 25 g/ha): 22.3% | Brix increased rate from the initial day of spraying ([2]; 25 g/ha): 19.8% | Concentration of soluble solid matter, Brix ([2]; 25 g/ha): 19.9% | PC increased rate from the initial day of spraying ([2]; 25 g/ha): 24.1% | Sugar content in sugarcane, PC ([2]; 25 g/ha): 14.6% | Total sugar amount recoverable from 1 kg of stem, ATR ([2]; 25 g/ha): 141.8 g | ATR increased rate from the initial day of spraying ([2]; 30 g/ha): 22.1% | Brix increased rate from the initial day of spraying ([2]; 30 g/ha): 21.6% | Concentration of soluble solid matter, Brix ([2]; 30 g/ha): 20.8% | PC increased rate from the initial day of spraying ([2]; 30 g/ha): 25.2% | Sugar content in sugarcane, PC ([2]; 30 g/ha): 15.6% | Total sugar amount recoverable from 1 kg of stem, ATR ([2]; 30 g/ha): 149.0 g | ATR increased rate from the initial day of spraying ([3]; after 15 days of spraying): 6.2% | Brix increased rate from the initial day of spraying ([3]; after 15 days of spraying): 4.5% | Concentration of soluble solid matter, Brix ([3]; after 15 days of spraying): 16.2% | Total sugar amount recoverable from 1 kg of stem, ATR ([3]; after 15 days of spraying): 112.5 g | ATR increased rate from the initial day of spraying ([3]; after 30 days of spraying): 17.3% | Brix increased rate from the initial day of spraying ([3]; after 30 days of spraying): 11.7% | Concentration of soluble solid matter, Brix ([3]; after 30 days of spraying): 17.3% | Total sugar amount recoverable from 1 kg of stem, ATR ([3]; after 30 days of spraying): 124.2 g | ATR increased rate from the initial day of spraying ([3]; after 45 days of spraying): 19.1% | Brix increased rate from the initial day of spraying ([3]; after 45 days of spraying): 12.9% | Concentration of soluble solid matter, Brix ([3]; after 45 days of spraying): 17.5% | Total sugar amount recoverable from 1 kg of stem, ATR ([3]; after 45 days of spraying): 126.1 g

CCOC(=O)C1CC(=O)C(=C(O)C2CC2)C(=O)C1 (stereo not drawn) [Trinexapac-ethyl, trinexapac-ethyl]
ATR increased rate from the initial day of spraying ([4]; after 15 days of spraying): 10.3% | Brix increased rate from the initial day of spraying ([4]; after 15 days of spraying): 8.0% | Concentration of soluble solid matter, Brix ([4]; after 15 days of spraying): 17.5% | Total sugar amount recoverable from 1 kg of stem, ATR ([4]; after 15 days of spraying): 125.3 g | ATR increased rate from the initial day of spraying ([4]; after 30 days of spraying): 18.0% | Brix increased rate from the initial day of spraying ([4]; after 30 days of spraying): 15.7% | Concentration of soluble solid matter, Brix ([4]; after 30 days of spraying): 18.8% | Total sugar amount recoverable from 1 kg of stem, ATR ([4]; after 30 days of spraying): 134.0 g | ATR increased rate from the initial day of spraying ([4]; after 45 days of spraying): 30.8% | Brix increased rate from the initial day of spraying ([4]; after 45 days of spraying): 24.7% | Concentration of soluble solid matter, Brix ([4]; after 45 days of spraying): 20.2% | Total sugar amount recoverable from 1 kg of stem, ATR ([4]; after 45 days of spraying): 148.5 g
